Among the data in patent publication US10155259B2 (Merck Sharp & Dohme B.V., priority 2011, dated 2018) are IC50 values, retold here.

Where only a bound is given, the exact number is not on record here.

The target of this assay is T1, human FSH receptor (Homo sapiens, UniProt P23945).
T1 construct: expressed in transfected cells; host or cells: CHO cells, stably transfected; cotransfected with CRE-luciferase reporter
T1 sequence (P23945 18-695): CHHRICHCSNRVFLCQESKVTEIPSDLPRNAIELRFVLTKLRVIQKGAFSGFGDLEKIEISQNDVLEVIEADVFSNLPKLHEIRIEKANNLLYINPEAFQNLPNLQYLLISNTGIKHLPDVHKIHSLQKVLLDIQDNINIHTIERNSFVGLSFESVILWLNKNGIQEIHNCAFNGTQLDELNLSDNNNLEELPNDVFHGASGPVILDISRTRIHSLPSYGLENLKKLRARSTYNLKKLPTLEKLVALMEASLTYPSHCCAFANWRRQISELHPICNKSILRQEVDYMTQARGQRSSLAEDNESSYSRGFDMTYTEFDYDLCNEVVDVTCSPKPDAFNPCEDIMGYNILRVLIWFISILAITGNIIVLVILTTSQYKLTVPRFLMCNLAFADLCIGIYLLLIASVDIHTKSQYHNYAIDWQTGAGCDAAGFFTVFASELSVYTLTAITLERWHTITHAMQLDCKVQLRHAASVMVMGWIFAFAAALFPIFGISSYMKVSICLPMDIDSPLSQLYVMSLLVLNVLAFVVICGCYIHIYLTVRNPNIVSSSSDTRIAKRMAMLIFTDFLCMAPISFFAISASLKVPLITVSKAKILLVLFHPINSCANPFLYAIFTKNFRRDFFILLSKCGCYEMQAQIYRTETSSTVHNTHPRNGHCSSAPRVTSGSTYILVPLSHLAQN
In words: Antagonistic activity of compounds at the human FSH receptor expressed in CHO cells (CRE-luciferase reporter). The conditions noted are these: CHO cells stably transfected with human FSH receptor and CRE/luciferase reporter; together with 49 μM recFSH; 4 hours incubation; 1% DMSO; read-out: IC50 (concentration of test compound causing half-maximal inhibition of the maximally attainable inhibition of the luciferase stimulation). The assay is classed as cell-based. The method, then: Antagonistic Activity of Compounds at the Human FSH Receptor Expressed in CHO Cells
Antagonistic activity of the compounds at the human FSH receptor was determined in Chinese Hamster Ovary (CHO) cells stably transfected with the human FSH receptor and cotransfected with a cAMP responsive element (CRE)/promotor directing the expression of a firefly luciferase reporter gene. Binding of the compounds to the Gs protein-coupled FSH receptor will result in an increase of cAMP, which in turn will induce an increased transactivation of the luciferase reporter. The cells (7,500 cells/well of a 384 well plate) were incubated in Dulbecco' minimal essential F12 modified medium (Invitrogen), supplemented with 1 μg/ml bovine insulin, 5 μg/ml human apo-transferrin, 100 U/ml penicillin G and 100 μg/ml streptomycin with the test compounds (concentration between 0.316 nM and 10.0 μM) in duplicate together with […] (which, at this concentration in the absence of test compound, induces 80% of the maximal luciferase stimulation) in a humidified atmosphere (95%) at 5-7% CO2 and 37° C. The final concentration of DMSO was 1%. After 4 hours of incubation, plates were allowed to adjust to room temperature for 1 hour. Then, SteadyLite (PerkinElmer) solution was added to the wells and cells were allowed to lyse for at least 1 hour at room temperature. Subsequently, luciferase activity was measured in a luminescence counter. The signal is expressed as counts per second (cps). The IC50 (concentration of test compound causing half-maximal (50%) inhibition of the maximally attainable inhibition of the luciferase stimulation by the compound) and efficacy of the compounds were determined using the software program MathIQ (version 2.3, ID Business Solutions Limited).
Background: A reporter such as luciferase makes a cellular process visible.
With `COc1cc2c(cc1OC)-c1c(C)c(C(=O)N[C@@H](CO)Cc3c[nH]c4ccccc34)c(-c3ccccc3)n1CC2` [Example 1, (R)—N-(1-hydroxy-3-(1H-indol-3-yl)propan-2-yl)-8,9-dimethoxy-1-methyl-3-phenyl-5,6-dihydropyrrolo[2,1-a]isoquinoline-2-carboxamide], the IC50 lay in the range of 100 to 1000 nM.

Regarding `COc1cc2c(cc1OC(C)C)-c1cc(C(=O)NC(C)(CO)Cc3c[nH]c4ccccc34)c(-c3cccc(F)c3)n1CC2` (stereo not shown) [Example 2], the IC50 was 100 to 1000 nM. The result for `COc1cc2c(cc1OC(C)C)-c1cc(C(=O)NC(CO)C3(c4c[nH]c5ccccc45)CC3)c(-c3cccc(F)c3)n1CC2` (stereo not shown) [Example 3] reads 100 to 1000 nM. The result for `COc1cc2c(cc1OC)-c1cc(C(=O)N[C@@H](CO)Cc3c[nH]c4ccccc34)c(-c3cc(C)cc(C)c3)n1CC2` [Example 4, (R)-3-(3,5-dimethylphenyl)-N-(1-hydroxy-3-(1H-indol-3-yl)propan-2-yl)-8,9-dimethoxy-5,6-dihydropyrrolo[2,1-a]isoquinoline-2-carboxamide] reads 100 to 1000 nM; that for `COc1cc2c(cc1OC)-c1cc(C(=O)N[C@@H](CO)Cc3c[nH]c4ccccc34)c(-c3ccccc3)n1CC2` [Example 5, (R)—N-(1-hydroxy-3-(1H-indol-3-yl)propan-2-yl)-8,9-dimethoxy-3-phenyl-5,6-dihydropyrrolo[2,1-a]isoquinoline-2-carboxamide], < 100 nM; that for `COc1cc2c(cc1OC)-c1cc(C(=O)N[C@@H](CO)Cc3c[nH]c4ccccc34)c(-c3ccc(F)cc3)n1CC2` [Example 6, (R)—N-(1-hydroxy-3-(1H-indol-3-yl)propan-2-yl)-8,9-dimethoxy-3-(4-fluorophenyl)-5,6-dihydropyrrolo[2,1-a]isoquinoline-2-carboxamide], < 100 nM. The result for `COc1cc2c(cc1OC)-c1cc(C(=O)N[C@@H](CO)Cc3c[nH]c4ccccc34)c(-c3cccs3)n1CC2` [Example 7, (R)—N-(1-hydroxy-3-(1H-indol-3-yl)propan-2-yl)-8,9-dimethoxy-3-(thiophen-2-yl)-5,6-dihydropyrrolo[2,1-a]isoquinoline-2-carboxamide] reads < 100 nM; that for `COc1ccc(-c2c(C(=O)N[C@@H](CO)Cc3c[nH]c4ccccc34)cc3n2CCc2cc(OC)c(OC)cc2-3)cc1` [Example 8, (R)—N-(1-hydroxy-3-(1H-indol-3-yl)propan-2-yl)-8,9-dimethoxy-3-(4-methoxyphenyl)-5,6-dihydropyrrolo[2,1-a]isoquinoline-2-carboxamide], < 100 nM. Regarding `COc1cc2c(cc1OC)-c1cc(C(=O)N[C@@H](CO)Cc3c[nH]c4ccccc34)c(-c3ccc([N+](=O)[O-])cc3)n1CC2` [Example 9, (R)—N-(1-hydroxy-3-(1H-indol-3-yl)propan-2-yl)-8,9-dimethoxy-3-(4-nitrophenyl)-5,6-dihydropyrrolo[2,1-a]isoquinoline-2-carboxamide], the IC50 was 100 to 1000 nM. `COc1cc2c(cc1OC)-c1cc(C(=O)N[C@@H](CO)Cc3c[nH]c4ccccc34)c(-c3cccc(F)c3)n1CC2` [Example 10, (R)-3-(3-fluorophenyl)-N-(1-hydroxy-3-(1H-indol-3-yl)propan-2-yl)-8,9-dimethoxy-5,6-dihydropyrrolo[2,1-a]isoquinoline-2-carboxamide]: the IC50 was < 100 nM. On to `COc1cc2c(cc1OC)-c1cc(C(=O)N[C@@H](CO)Cc3c[nH]c4ccccc34)c(-c3ccccn3)n1CC2` [Example 11], for which the IC50 was < 100 nM.

Turning to `COc1cccc(-c2c(C(=O)N[C@@H](CO)Cc3c[nH]c4ccccc34)cc3n2CCc2cc(OC)c(OC)cc2-3)c1` [Example 12, (R)—N-(1-hydroxy-3-(1H-indol-3-yl)propan-2-yl)-8,9-dimethoxy-3-(3-methoxyphenyl)-5,6-dihydropyrrolo[2,1-a]isoquinoline-2-carboxamide], the IC50 was < 100 nM.

With `COc1cc2c(cc1OC(C)C)-c1cc(C(=O)N[C@@H](CO)Cc3c[nH]c4ccccc34)c(-c3ccc(F)cc3)n1CC2` [Example 13, (R)-3-(4-fluorophenyl)-N-(1-hydroxy-3-(1H-indol-3-yl)propan-2-yl)-9-isopropoxy-8-methoxy-5,6-dihydropyrrolo[2,1-a]isoquinoline-2-carboxamide], the IC50 was < 100 nM. The result for `COc1cc2c(cc1OC(C)C)-c1cc(C(=O)N[C@@H](CO)Cc3c[nH]c4ccccc34)c(-c3cccc(C)c3)n1CC2` [Example 14, (R)—N-(1-hydroxy-3-(1H-indol-3-yl)propan-2-yl)-9-isopropoxy-8-methoxy-3-m-tolyl-5,6-dihydropyrrolo[2,1-a]isoquinoline-2-carboxamide] reads < 100 nM. Regarding `COc1cc2c(cc1OC(C)C)-c1cc(C(=O)N[C@@H](CO)Cc3c[nH]c4ccccc34)c(-c3ccc(N)nc3)n1CC2` [Example 15, (R)-3-(6-aminopyridin-3-yl)-N-(1-hydroxy-3-(1H-indol-3-yl)propan-2-yl)-9-isopropoxy-8-methoxy-5,6-dihydropyrrolo[2,1-a]isoquinoline-2-carboxamide], the IC50 lay within 100 to 1000 nM. The result for `COc1cc2c(cc1OC(C)C)-c1cc(C(=O)N[C@@H](CO)Cc3c[nH]c4ccccc34)c(-c3cccc(Cl)c3)n1CC2` [Example 16, (R)-3-(3-chlorophenyl)-N-(1-hydroxy-3-(1H-indol-3-yl)propan-2-yl)-9-isopropoxy-8-methoxy-5,6-dihydropyrrolo[2,1-a]isoquinoline-2-carboxamide] reads < 100 nM; that for `COc1cc2c(cc1OC(C)C)-c1cc(C(=O)N[C@@H](CO)Cc3c[nH]c4ccccc34)c(-c3ccccc3F)n1CC2` [Example 18, 3-(2-fluorophenyl)-N—((R)-1-hydroxy-3-(1H-indol-3-yl)propan-2-yl)-9-isopropoxy-8-methoxy-5,6-dihydropyrrolo[2,1-a]isoquinoline-2-carboxamide], < 100 nM; that for `COc1cc2c(cc1OC(C)C)-c1cc(C(=O)N[C@@H](CO)Cc3c[nH]c4ccccc34)c(-c3ccco3)n1CC2` [Example 19, (R)-3-(furan-2-yl)-N-(1-hydroxy-3-(1H-indol-3-yl)propan-2-yl)-9-isopropoxy-8-methoxy-5,6-dihydropyrrolo[2,1-a]isoquinoline-2-carboxamide], < 100 nM.

As for `COc1cc2c(cc1OC(C)C)-c1cc(C(=O)N[C@@H](CO)Cc3c[nH]c4ccccc34)c(CC(C)C)n1CC2` [Example 22, (R)—N-(1-hydroxy-3-(1H-indol-3-yl)propan-2-yl)-3-isobutyl-9-isopropoxy-8-methoxy-5,6-dihydropyrrolo[2,1-a]isoquinoline-2-carboxamide], the IC50 was < 100 nM. On to `COc1cc2c(cc1OC(C)C)-c1cc(C(=O)N[C@@H](CO)Cc3c[nH]c4ccccc34)c(C=C(C)C)n1CC2` [Example 23, (R)—N-(1-hydroxy-3-(1H-indol-3-yl)propan-2-yl)-9-isopropoxy-8-methoxy-3-(2-methylprop-1-enyl)-5,6-dihydropyrrolo[2,1-a]isoquinoline-2-carboxamide], for which the IC50 is < 100 nM.

For `COc1cc2c(cc1OC(C)C)-c1cc(C(=O)N[C@@H](CO)Cc3c[nH]c4ccccc34)c(C(=O)C(C)C)n1CC2` [Example 24, (R)—N-(1-hydroxy-3-(1H-indol-3-yl)propan-2-yl)-3-isobutyryl-9-isopropoxy-8-methoxy-5,6-dihydropyrrolo[2,1-a]isoquinoline-2-carboxamide], the IC50 is < 100 nM.

Regarding `COc1cc2c(cc1OC(C)C)-c1cc(C(=O)N[C@@H](CO)Cc3c[nH]c4ccccc34)c(C(=O)C(C)(C)C)n1CC2` [Example 25, (R)—N-(1-hydroxy-3-(1H-indol-3-yl)propan-2-yl)-9-isopropoxy-8-methoxy-3-pivaloyl-5,6-dihydropyrrolo[2,1-a]isoquinoline-2-carboxamide], the IC50 is < 100 nM.
